According to patent US8796246B2, “9, 10-secopregnane derivative and pharmaceutical” (Nippon Shinyaku Co., Ltd., priority 2006, dated 2014):

Tests used:
[1] = Action to increase the urinary excretion of calcium (2), intravenous administration; assay type: in vivo, SD male rats; details: intravenous 22.4 nmol/kg; for Calcium in Urine: urine collected within 24 hours after administration; for Ratio of Calcium in Urine (to control): urine within 24 hours, test compound/control group
Description: The compound of the invention mentioned in Example 42, 61 or 66, or maxacalcitol in saline containing 0.1% Triton X 100/5.6% DMSO (22.4 nmol/kg) was subjected to an intravenous administration to SD male rats (7 weeks of age) Saline containing 0.1% Triton X 100/5.6% DMSO was administered to a control group. The calcium concentration in urine collected within 24 hours after the administration was measured and the urinary excretion of calcium ([calcium concentration in urine]×[amount of urine]) and the ratio of urinary excretion of calcium based on the control group ([calcium amount in urine in administration of the test compound]/[calcium amount in urine in the control group]) were calculated.

[2] = Metabolic rate in human liver microsome; assay type: in vitro ADME; details: pooled human liver microsome 1 mg/mL protein, NADPH-regenerating system, 37° C., 2-60 minutes, HPLC
Description: The compounds of the invention mentioned in Examples and maxacalcitol were compared with each other with respect to the metabolic rate in human liver microsome.
As to the pooled human liver microsome (HHM-0323), those manufactured by Tissue Transformation Technologies were used. A 0.25 M potassium phosphate buffer (pH 7.4) (200 μL), 5 μL of a 250 μM solution of each compound to be tested in DMSO, 50 μL of an NADPH-regenerating system (where 20 mg of β-NADP^+, 70 mg of glucose-6-phosphate, 40 units of glucose-6-phosphate dehydrogenase and 20 mg of magnesium chloride were dissolved in 1 mL of distilled water) and 220 μL of distilled water were added to a microtube and the mixture was subjected to a preincubation for 5 minutes at 37° C. Reaction was started by an addition of 25 μL of human liver microsome (final concentration of protein: 1 mg/mL). Incubation was performed for 2, 10, 30 or 60 minutes and the reaction was stopped by an addition of 500 μL of acetonitrile. After centrifugation at 13,000 rpm for 5 minutes, each test compound in the supernatant (25 μL) was measured by HPLC under the following conditions.
Inertsil ODS-3 (4.6×150 mm; GL Science) was used as a column. With regard to the mobile phase, a solution A (acetonitrile/0.1% aqueous solution of ammonium acetate=10/90) and a solution B (acetonitrile/0.1% aqueous solution of ammonium acetate=90/10) were used under the linear gradient conditions mentioned in Tables 5 to 7. The column temperature, the flow rate and the wavelength for detection were set at 40° C., 1.0 mL/min. and UV 250 or 270 nm, respectively.
The compound mentioned in Example 38 was analyzed under the condition shown in Table 6; the compounds mentioned in Examples 55, 56, 68, 69, 72 and 73 were under the condition shown in Table 7; and the other compounds were under the condition shown in Table 5.
The compounds described in Examples 40, 43 to 48, 50, 55, 56, 58, 60, 61, 63 and 65 to 73 were analyzed under the condition of UV 250 nm; and the other compounds were under the condition of UV 270 nm.
From the HPLC test results as above, the metabolic rate of the test compound was calculated.

[3] = system: human acute myelogenous leukemia cell line HL-60; assay: Ability to induce differentiation of HL-60 cells (oxygen radical production after phorbol ester, WST-1); assay type: cell-based; details: 72 hours incubation, then WST-1 and phorbol 12,13-didecanoate for 4 hours, absorbance at 450 nm
Text: It is known that the human acute myelogenous leukemia cell line HL-60is differentiated into neutrophil-like cells by active vitamin D or the like. Thus, the cells after the differentiation begin to express a surface marker such as CD11and CD32and, at the same time, they produce an oxygen radical by stimulation with a phorbol ester or the like. In this test, the above-mentioned property was utilized. As an index of the ability to induce differentiation of the HL-60cells, the amount of the oxygen radical produced by stimulation with a phorbol ester was measured, and the compounds of the invention mentioned in Examples were compared with maxacalcitol with respect to the vitamin D3activity thereof. In use of commercial reagents and kits, if any, the indications attached thereto were referred to.
HL-60cells (supplied from ATCC) were seeded on a 96-well plate at 5×10^3cells/100μL/well and a test compound in two-fold dilution series from 10^−7M was added to the second to the twelfth rows (maximum concentration: the second row). The first row was used for blank. After incubation for 72 hours under a moisturized condition in the presence of 5% CO2 at 37° C. using a CO2 incubator, 10 μL of PBS containing 50 mM WST-1 (manufactured by Takara Bio) and 10 μM phorbol 12,13-didecanoate (manufactured by SIGMA) were added to each well followed by further incubation for 4 hours. Absorbance (reference wavelength: […]) at […] of the WST-1 formazane dye generated by conversion from WST-1 by oxygen radical produced from the differentiated HL-60 cells was measured by a Benchmark microplate reader (manufactured by BioRad). An absorbance meter control software MPM3 (manufactured by BioRad) was used and, from a concentration-absorbance curve, the 50%-maximal effective concentration (hereinafter, referred to as “EC50”) of each was determined by a logistic curve regression.

[4] = Action to increase calcium concentration in serum, percutaneous administration; assay type: in vivo, SD male rats; details: for Serum Calcium Concentration: percutaneous 33 μg/200 μL/kg/day once a day for 7 days, blood 24 hours after final administration
Description: The compound of the invention mentioned in Example 1 or maxacalcitol in ethanol containing 0.3% DMSO was repeatedly subjected to percutaneous administration (33 μg/200 μL/kg/day) once a day for 7 days onto the back of SD male rats (7 weeks of age). Ethanol containing 0.3% DMSO was administered to a control group. At 24 hours after the final administration, blood was collected and the calcium concentration in serum was measured.

[5] = Action to increase the urinary excretion of calcium (1), percutaneous administration; assay type: in vivo, SD male rats; details: percutaneous 10 μg/200 μL/kg/day once a day for 4 days; for Calcium in Urine within 24 hours: accumulated excretion 0 to 24 hours; for Calcium in Urine within 48 hours: accumulated excretion 0 to 48 hours; for Calcium in Urine within 72 hours: accumulated excretion 0 to 72 hours; for Calcium in Urine within 96 hours: accumulated excretion 0 to 96 hours
Description: The compound of the invention mentioned in Example 1, 36, 43, 47, 48, 55 or 70 or maxacalcitol in ethanol containing 0.5% DMSO was repeatedly subjected to a percutaneous administration (10 μg/200 μL/kg/day) once a day for 4 days onto the back of SD male rats (7 weeks of age). Ethanol containing 0.5% DMSO was administered to a control group. The calcium concentration in urine collected every 24 hours was measured and multiplied by the amount of urine to calculate the urinary excretion of calcium. The calcium excretion in urine shown in Table 3 indicates the accumulated calcium excretion from 0 to 24 hours, from 0 to 48 hours, from 0 to 72 hours, and from 0 to 96 hours.

Row | SMILES | Calcium in Urine [1] | Ratio of Calcium in Urine (to control) [1] | Metabolic Rate [2] | EC50 [3] | effect on the calcium concentration in serum (in words) ([4]; percutaneous 33 μg/200 μL/kg/day for 7 days) | Serum Calcium Concentration [4] | Calcium in Urine within 24 hours [5] | Calcium in Urine within 48 hours [5] | Calcium in Urine within 72 hours [5] | Calcium in Urine within 96 hours [5] | EC50 ([3]; Homo sapiens)
1 | CC1[C@H](O)CC(=C/C=C2\CCC[C@]3(C)[C@@H]([C@H](C)OC(=O)CCC(C)(O)C(F)(F)F)CC[C@@H]23)C[C@H]1O (stereo partly drawn) [Compound of Example 61, (1R,2β,3R,20S)-2-methyl-19-nor-20-(5,5,5-trifluoro-4-hydroxy-4-methylpentanoyloxy)-9,10-secopregna-5Z,7E-diene-1,3-diol] | 0.6 mg | 120% | 188 pmol/min/mg | 1.2 nM |  |  |  |  |  |  | 
2 | CCC(O)(/C=C/C(=O)O[C@@H](C)[C@H]1CC[C@H]2/C(=C/C=C3C[C@@H](O)C[C@H](O)C3)CCC[C@]12C)CC [Compound of Example 42, (1R,3R,20S)-19-nor-20-[(2E)-4-ethyl-4-hydroxyhex-2-enoyloxy]-9,10-secopregna-5Z,7E-diene-1,3-diol] | 0.8 mg | 160% | 34 pmol/min/mg | 1.3 nM |  |  |  |  |  |  | 
3 | C=C1/C(=C\C=C2/CCC[C@]3(C)[C@@H]([C@H](C)OCCC(C)(C)O)CC[C@@H]23)C[C@@H](O)C[C@@H]1O [Maxacalcitol, (1S,3R,20S)-20-(3-hydroxy-3-methylbutyloxy)-9,10-secopregna-5Z,7E,10(19)-trien-1,3-diol, reference compound] | 2.3 mg | 460% | 10 pmol/min/mg |  | increased the calcium concentration in serum | 15.0 mg/dL | 2.6 mg | 4.5 mg | 8.5 mg | 13.9 mg | 5.4 nM
4 | C=C1/C(=C\C=C2/CCC[C@]3(C)[C@@H]([C@H](C)OC(=O)CCC(C)(C)O)CC[C@@H]23)C[C@@H](O)C[C@@H]1O [Compound of Example 1, (1S,3R,20S)-20-(4-hydroxy-4-methylpentanoyloxy)-9,10-secopregna-5Z,7E,10(19)-triene-1,3-diol] |  |  | 78 pmol/min/mg | 1.5 nM |  | 11.8 mg/dL | 0.8 mg | 1.4 mg | 2.3 mg | 3.8 mg | 
5 | CCC(O)(CC)CCC(=O)O[C@@H](C)[C@H]1CC[C@H]2/C(=C/C=C3C[C@@H](O)C(C)[C@H](O)C3)CCC[C@]12C (stereo partly drawn) [Compound of Example 66, (1R,2β,3R,20S) -2-methyl-19-nor-20-[4-ethyl-4-hydroxyhexanoyloxy]-9,10-secopregna-5Z,7E-diene-1,3-diol] | 0.5 mg | 100% | 116 pmol/min/mg |  |  |  |  |  |  |  | 
6 | C=C1/C(=C\C=C2/CCC[C@]3(C)C([C@H](C)OC(=O)CCC(C)(O)C(F)(F)F)=CC[C@@H]23)C[C@@H](O)C[C@@H]1O (single isomer, unassigned) [Compound of Example 70, (1S,3R,20S)-20-[(4R) or (4S)-5,5,5-trifluoro-4-hydroxy-4-methylpentanoyloxy]-9,10-secopregna-5Z,7E,10(19),16-tetraene-1,3-diol] |  |  | 60 pmol/min/mg | 0.13 nM |  |  | 1.4 mg | 1.9 mg | 2.7 mg | 3.7 mg | 
7 | C=C1[C@H](O)CC(=C/C=C2\CCC[C@]3(C)C([C@H](C)OC(=O)CCC(C)(C)O)=CC[C@@H]23)C[C@H]1O [Compound of Example 48, (1R,3R,20S)-19-nor-2-methylene-20-(4-hydroxy-4-methylpentanoyloxy)-9,10-secopregna-5Z,7E,16-triene-1,3-diol] |  |  | 69 pmol/min/mg | 0.21 nM |  |  | 1.1 mg | 1.9 mg | 3.5 mg | 5.2 mg | 
8 | C=C1[C@H](O)CC(=C/C=C2\CCC[C@]3(C)C([C@H](C)OC(=O)CC[C@](C)(O)C(F)(F)F)=CC[C@@H]23)C[C@H]1O [Compound of Example 55, (1R,3R,20S)-19-nor-2-methylene-20-[(4S)-5,5,5-trifluoro-4-hydroxy-4-methylpentanoyloxy]-9,10-secopregna-5Z,7E,16-triene-1,3-diol] |  |  | 128 pmol/min/mg | 0.15 nM |  |  | 1.1 mg | 2.0 mg | 3.4 mg | 4.8 mg | 
